Here are results for 2 molecules from patent US20260067245A1, “METHODS AND COMPOSITIONS FOR TUMOR THERAPY” (MEMORIAL SLOAN KETTERING CANCER CENTER, priority 2022, published 2026).

This assay has as its system B16F10 cells. As to the kind of experiment: mouse bilateral tumor model, B16 murine melanoma (one tumor injected, contralateral not injected). It is filed as in vivo.

Entries after “also recorded” stand apart in the source; their conditions may differ.

Procedure: By injecting only one of two tumors throughout the course of the experiment it is possible to separate the effect of the injected tumor from the “abscopal” effect on the distant non-injected tumor. Once treatment begins, tumors are measured twice weekly for at least 90 days.
Also, unless indicated otherwise, controls were treated with isotype control antibodies and vehicle only. Furthermore, unless indicated otherwise, all experiments were performed using the mouse bilateral tumor model described below and summarized in FIG. 2.
The animals used had large tumors in two opposite flanks. One tumor was injected while the second remained non-injected (FIG. 2), allowing separate analysis of the effect at the injected tumor from the so-called ‘abscopal’ effect at the non-injected tumor, in order to understand how this treatment could benefit patients with metastatic cancer. […] C57BL/6 mice were initially implanted with 5×10^5 syngeneic B16F10 cells intra-dermally in bilateral flanks. 8 days post tumor cell implantation, when bilateral tumors measured ˜0.5 cm, intratumoral (IT) treatment with various test agents was initiated together with intraperitoneal (IP) anti-PD-1 mAb. Treatment was administered twice weekly for 4 weeks into one of the bilateral tumors. The contralateral tumor remained un-injected for the duration of the experiment.
8 days post tumor cell implantation, when bilateral tumors measured ˜0.5 cm, intratumoral (IT) treatment with agents selected to activate APCs was initiated together with intraperitoneal (IP) anti-PD-1 mAb. Treatment was administered twice weekly for 4 weeks into one of the bilateral tumors. The contralateral tumor remained un-injected for the duration of the experiment (see FIG. 2 for schematic of experimental protocol).
These nanoparticles were administered to animals receiving 250 μg intraperitoneal anti-PD-1 (RMP1-14) concurrently. Non-formulated control animals received mixtures of MPL (5 μg) and FGK45 (20 μg) injected intratumorally with RMP1-14 delivered intraperitoneally. Anti-PD-1-only control animals received 250 μg of intraperitoneal RMP1-14 alone. Isotype/vehicle control animals received isotype control mAbs and vehicle corresponding to the nanoparticle-treated group.

On to `O=C1[O][Pt]2([NH][C@@H]3CCCC[C@H]3[NH]2)[O]C1=O` [oxaliplatin], for which, for the setting “concurrent systemic (IP) addition to intratumoral MPL, anti-IL10R and anti-CD40 (41040)”, the survival result is given as “increases survival”.
With PolyIC, the “activity when substituted for MPL in the regimen” value (FIG. 35B, bilateral tumor model) is reported as “could be substituted for MPL; also recorded: can be substituted for MPL, albeit possibly with slightly reduced activity”.
